US4009273A, “Substituted 10,11-dihydro-5,10-imino-[5H] dibenzo (a,d)-cycloheptene” (priority 1972, dated 1977)
Values joined by “and” are separate entries in the source; they are usually repeats but may differ in a detail not shown here. Identical values can stand only once.

What was measured:
[1] = tested on: DOPA; experiment: Potentialization of DOPA; assay type: in vivo, mice (male); settings: 1 h before 50 mg/kg DOPA
Experimental: In this test, DOPA [racemic β-(3,4-dihydroxyphenyl)-alanine] was administered to mice pretreated with 1-isonicotinoyl-2-isopropyl-hydrazine18 hours before the test which product caused the following symptoms: hypertonicity, agitation, crying, aggressiveness, salivation and exophthalmia. The administration of an antidepressant one hour before the DOPA injection potentializes the intensity of the effects.
Male mice weighing between 18 to 22 g received intraperitoneally 50 mg/kg of 1-isonicotinoyl-2-isopropyl-hydrazine and 18 hours later the test product intraperitoneally in aqueous solution in increasing doses and 1 hour later received an intraperitoneal injection of 50 mg/kg of DOPA. The different effects were evaluated 15 and 30 minutes after the DOPA injection and each symptom was evaluated for each animal on a scale from 0 to 3 and the evaluations for each dose was totaled. The totals are reported in Table III as a percent of the total of control animals.

[2] = Acute toxicity; settings: mouse, in vivo, ip, Swiss mice, observed for a week
Experimental: The acute toxicity was determined on groups of Swiss mice weighing 18 to 22 g and the test products were administered intraperitoneally in increasing doses and the animals were kept under observation for a week.

[3] = tested on: amphetamine deaths; experiment: Amphetamine toxicity in mice; assay type: in vivo, mice (female); settings: mortality at 4 h
Experimental: The test was effected on group of 10 female mice weighing between 18 and 22 g kept at 27° C for the duration of the test. The test products were intraperitoneally administered in different doses in a volume of 0.01 ml /g of mouse. One hour later, the mice received an injection of 15 mg/kg of a solution of 1.5 mg of amphetamine per ml of physiological serum. The mortality 4 hours after the amphetamine injection was determined and the results were expressed as a ratio of number of dead animals to number of starting animals.

[4] = tested on: pentamethylenetetrazol convulsions; experiment: Anticonvulsant effect (pentamethylenetetrazol perfusion); assay type: in vivo, mice (female); settings: 1 h before perfusion
Experimental: The anticonvulsant activity of the compounds was determined on groups of 10 female mice with intraperitoneal administration of the test compounds in acid solution at different doses and the control group received only the solvent. One hour after the injection, the mice were perfused with a solution of pentamethylenetetrazol in physiological serum at a concentration of 3 mg/ml. The perfusion was intraveinous at a rate of 1 ml per minute and in the course of the perfusion, the progress of introxication was characterized by the following 3 criteria:
a. Threshold of convulsant effect (myoclonia of the ears)
b. Crisis of clonic convulsions
c. Tonic convulsion with apnea and generally followed by death.

[5] = tested on: amytal sleeping time; experiment: Potentialization of sleeping time (amytal); assay type: in vivo, mice (female); settings: 1 h before 80 mg/kg amytal i.v.
Experimental: The potentialization of sleeping time was determined with a test using amytal [5-ethyl-5-isoamyl-barbituric acid] in which groups of female mice weighing between 18 and 22 g were kept at 25° C for the duration of the test. The test products were administered intraperitoneally at different doses one hour before intraveinous injection of 80 mg/kg of amytal and the sleeping time was noted which is the time while the reflux of straightening in the mice was negative.

[6] = 5 mg/Kg i.p., 1 h before 15 mg/kg amphetamine
[7] = 10 mg/Kg i.p., 1 h before 15 mg/kg amphetamine
[8] = 20 mg/Kg i.p., 1 h before 15 mg/kg amphetamine
[9] = head prints only "mg/Kg" (dose figure missing), i.p.

Row | Structure (SMILES) | LD50 at 168 h [2] [mg/kg] | ratio of number of dead animals to number of starting animals [3, 6] | ratio of number of dead animals to number of starting animals [3, 7] | ratio of number of dead animals to number of starting animals [3, 8] | Dose of pentamethylenetetrazol, Clonic Crisis ([4]; 2 mg/Kg i.p.) [mg/kg] | Dose of pentamethylenetetrazol, Myoclonia ([4]; 2 mg/Kg i.p.) [mg/kg] | Dose of pentamethylenetetrazol, Tonic Crisis ([4]; 2 mg/Kg i.p.) [mg/kg] | Dose of pentamethylenetetrazol, Clonic Crisis ([4]; 5 mg/Kg i.p.) [mg/kg] | Dose of pentamethylenetetrazol, Myoclonia ([4]; 5 mg/Kg i.p.) [mg/kg] | Dose of pentamethylenetetrazol, Tonic Crisis ([4]; 5 mg/Kg i.p.) [mg/kg] | Dose of pentamethylenetetrazol, Clonic Crisis ([4]; 10 mg/Kg i.p.) [mg/kg] | Dose of pentamethylenetetrazol, Myoclonia ([4]; 10 mg/Kg i.p.) [mg/kg] | Dose of pentamethylenetetrazol, Tonic Crisis ([4]; 10 mg/Kg i.p.) [mg/kg] | average sleeping time ([5]; 2 mg/Kg i.p.) [min] | average sleeping time ([5]; 5 mg/Kg i.p.) [min] | average sleeping time ([5]; 10 mg/Kg i.p.) [min] | average sleeping time ([5]; 20 mg/Kg i.p.) [min] | Dose of pentamethylenetetrazol, Clonic Crisis ([4]; 1 mg/Kg i.p.) [mg/kg] | Dose of pentamethylenetetrazol, Myoclonia ([4]; 1 mg/Kg i.p.) [mg/kg] | Dose of pentamethylenetetrazol, Tonic Crisis ([4]; 1 mg/Kg i.p.) [mg/kg] | also measured
1 | CN(C)CC(=O)N1C2Cc3ccccc3C1c1ccccc12 (stereo not drawn) [Example 14, 12-dimethylaminoacetyl-10,11-dihydro-5,10-imino-[5H]-dibenzo (a,d) cycloheptene dl] | 150 |  |  |  |  |  |  |  |  |  |  |  |  |  |  |  |  |  |  |  | total symptom score as percent of the total of control animals ([1]; 10 mg/Kg i.p.): 117%; total symptom score as percent of the total of control animals ([1]; 20 mg/Kg i.p.): 160%; total symptom score as percent of the total of control animals ([1]; 50 mg/Kg i.p.): 196%
2 | ClCCN1C2Cc3ccccc3C1c1ccccc12 (stereo not drawn) [Example 27, 12-(2'-chloroethyl)-10,11-dihydro-5,10-imino-[5H]-dibenzo (a,d) cycloheptene dl] | ~150 | 10/10 | 8/10 | 2/10 | 52.9 | 45.9 | 163.2 | 56.7 | 51.5 | 229.8 | 62.1 | 57 | 258.2 | 21.7 | 42.2 | 44.8 | 83.0 |  |  |  | 
3 | CCCN1C2Cc3ccccc3C1c1ccccc12 (stereo not drawn) [Example 24, 12-n-propyl-10,11-dihydro-5,10-imino[5H]-dibenzo (a,d) cycloheptene dl] | ~250 | 10/10 | 9/10 | 3/10 | 57.3 | 50.4 | 225.8 | 60.0 | 51.4 | 265.2 | 78.4 | 57.7 | 275.9 | 38.6 | 42.2 | 65.1 | 103.7 | 61.8 | 54.2 | 170.3 | 
4 | OCCN1C2Cc3ccccc3C1c1ccccc12 (stereo not drawn) [Example 6, 12-(2'-hydroxyethyl)-10,11-dihydro-5,10-imino-[5H]-dibenzo (a,d) cycloheptene dl] | 350 | 3/10 | 9/10 and 3/10 | 0/10 | 43.5 | 38.6 | 104.3 | 45.5 | 49.3 | 204.6 |  |  |  |  |  |  |  | 45.7 | 40.6 | 144.2 | total symptom score as percent of the total of control animals ([1]; 1 mg/Kg i.p.): 138%; total symptom score as percent of the total of control animals ([1]; 2 mg/Kg i.p.): 155%; total symptom score as percent of the total of control animals ([1]; 10 mg/Kg i.p.): 140%; Dose of pentamethylenetetrazol, Clonic Crisis ([4]; 0.5 mg/Kg i.p.): 42.9 mg/kg; Dose of pentamethylenetetrazol, Myoclonia ([4]; 0.5 mg/Kg i.p.): 38.2 mg/kg; Dose of pentamethylenetetrazol, Tonic Crisis ([4]; 0.5 mg/Kg i.p.): 129.0 mg/kg
5 | CCN1C2Cc3ccccc3C1c1ccccc12 (stereo not drawn) [Example 21, 12-ethyl-10,11-dihydro-5,10-imino-[5H]-dibenzo (a,d) cycloheptene dl] |  | 10/10 | 6/10 | 0/10 | 47.7 | 42.3 | 206.2 | 57.0 | 49.6 | 238.1 |  |  |  | 39.6 | 58.1 | 71.5 |  | 48.3 | 42.9 | 168.2 | total symptom score as percent of the total of control animals ([1]; 1 mg/Kg i.p.): 187%; total symptom score as percent of the total of control animals ([1]; 2 mg/Kg i.p.): 175%; total symptom score as percent of the total of control animals ([1]; 5 mg/Kg i.p.): 181%; ratio of number of dead animals to number of starting animals [3, 9]: 0/10; average sleeping time ([5]; 1 mg/Kg i.p.): 32.1 min
6 | CN1C2Cc3ccccc3C1c1ccc(Cl)cc12 (stereo not drawn) [Example 26, 8-chloro-12-methyl-10,11-dihydro-5,10-imino-[5H]-dibenzo (a,d) cycloheptene dl] | ~350 | 10/10 | 10/10 | 10/10 |  |  |  | 50.8 | 43.9 | 128 | 52.0 | 44.1 | 174.7 |  | 22.6 | 27.4 | 36.0 |  |  |  | ratio of number of dead animals to number of starting animals [3, 9]: 1/9; Dose of pentamethylenetetrazol, Clonic Crisis ([4]; 20 mg/Kg i.p.): 56.4 mg/kg; Dose of pentamethylenetetrazol, Myoclonia ([4]; 20 mg/Kg i.p.): 49.7 mg/kg; Dose of pentamethylenetetrazol, Tonic Crisis ([4]; 20 mg/Kg i.p.): 230.2 mg/kg; Dose of pentamethylenetetrazol, Clonic Crisis ([4]; 50 mg/Kg i.p.): 66.7 mg/kg; Dose of pentamethylenetetrazol, Myoclonia ([4]; 50 mg/Kg i.p.): 52.6 mg/kg; Dose of pentamethylenetetrazol, Tonic Crisis ([4]; 50 mg/Kg i.p.): 274.2 mg/kg; average sleeping time ([5]; 50 mg/Kg i.p.): 94.5 min
